One assay concerns MTAP-deleted cell line. Description: viability assay for the MTAP-deleted cell line. It counts as cell-based. The conditions noted are these: Homo sapiens, HAP1, viability assay.
In assay [1] the test system is HAP1 MTAP-deleted cell line. Briefly: SDMA in-cell western assay, HAP1 MTAP-deleted. The settings on record: for IC50 / IC90: Homo sapiens; for Hap1 MTAP intact/deleted ratio: IC50 ratio between HAP1 MTAP-intact and HAP1 MTAP-deleted cell line.
Assay [2] has as its system HAP1 MTAP-intact cell line. Description: SDMA in-cell western assay, HAP1 MTAP-intact. The settings on record: Homo sapiens.
Setting [3] is: HAP1, read-out: Hap1 MTAP deleted IC50, SDMA in-cell western assay, HAP1 MTAP-deleted cell line.
[4] abbreviates: HAP1, read-out: Hap1 MTAP deleted IC90, SDMA in-cell western assay, HAP1 MTAP-deleted cell line.
Setting [5] is: HAP1, read-out: Hap1 MTAP intact IC50, SDMA in-cell western assay, HAP1 MTAP-intact cell line.
Setting [6] is: HAP1, read-out: Hap1 MTAP deleted IC50, SDMA in-cell western, HAP1 MTAP-deleted cell line.
The mark [7] stands for this setting: HAP1, read-out: Hap1 MTAP deleted IC90, SDMA in-cell western, HAP1 MTAP-deleted cell line.
Setting [8] is: HAP1, read-out: Hap1 MTAP intact IC50, SDMA in-cell western, HAP1 MTAP-intact cell line.
[9] abbreviates: HAP1, read-out: Hap1 MTAP intact IC50.

Read-outs that look alike come from different tables or passages of the source.

Usually IC50 stands for the concentration at which inhibition is half-maximal. By IC90 is commonly meant the concentration at which the effect reaches the 90% level.

As to `C[C@H]1CC[C@H](c2ccc3c(c2)CCO3)N(C(=O)C(=O)Nc2cnc(N)c3cn[nH]c23)C1` (racemic) [Compound 206, N-(4-Amino-1H-pyrazolo[4,3-c]pyridin-7-yl)-2-oxo-2-[rac-(2R,5S)-2-(2,3-dihydrobenzofuran-5-yl)-5-methyl-1-piperidyl]acetamide], the IC50 with MTAP-deleted cell line is less than 0.1 µM; in assay [1] (setting [3]), less than 0.005 µM; in assay [2] (setting [5]), 0.005 to 0.05 µM. Moreover, the IC90 in assay [1] (setting [4]) was less than 0.075 µM. For the same molecule, in assay [1] (SDMA in-cell western assay), the “Hap1 MTAP intact/deleted ratio” value was “B (“B” indicates an IC50 ratio greater than or equal to 15 fold but lower than 30 fold)”.

`C[C@@H]1CN(C(=O)C(=O)Nc2cnc(N)c3cn[nH]c23)[C@@H](c2ccccc2)CC1(F)F` (racemic) [Compound 216, N-(4-Amino-1H-pyrazolo[4,3-c]pyridin-7-yl)-2-oxo-2-[rac-(2R,5R)-4,4-difluoro-5-methyl-2-phenyl-1-piperidyl]acetamide]: the figures for the IC50 (in the assay with MTAP-deleted cell line; in assay [1] (setting [3]); in assay [2] (setting [5])) were less than 0.1 µM, less than 0.005 µM and 0.005 to 0.05 µM, respectively. Also, the IC90 in assay [1] (setting [4]) was less than 0.075 µM. Also, in assay [1] (SDMA in-cell western assay), the “Hap1 MTAP intact/deleted ratio” value is given as “C (“C” indicates an IC50 ratio of less than 15 fold)”.

For the molecule `C[C@H]1CC[C@H](c2ccc(CCN(C)C)cc2)N(C(=O)C(=O)Nc2cnc(N)c3c2cnn3C)C1` [Compound 202, N-(7-Amino-1-methyl-pyrazolo[3,4-c]pyridin-4-yl)-2-oxo-2-[(2R,5S)-2-[4-[2-(dimethylamino)ethyl]phenyl]-5-methyl-1-piperidyl]acetamide], the values for the IC50 (with MTAP-deleted cell line; in assay [1] (setting [3]); in assay [2] (setting [5])) were less than 0.1 µM, less than 0.005 µM and 0.005 to 0.05 µM, respectively. In addition, the IC90 in assay [1] (setting [4]) was less than 0.075 µM. Also, the “Hap1 MTAP intact/deleted ratio” value in assay [1] (SDMA in-cell western assay) is “C (“C” indicates an IC50 ratio of less than 15 fold)”.

Take `C[C@H]1CC[C@H](c2ccc3sc([C@@H](C)N(C)C)nc3c2)N(C(=O)C(=O)Nc2cncc3cn[nH]c23)C1` (single isomer, unassigned) [Compound 167]: the half-maximal inhibitory concentration (IC50) is less than 0.1 µM with MTAP-deleted cell line, 0.005 to 0.05 µM in assay [1] (setting [6]) and greater than 0.05 µM in assay [2] (setting [8]). Further, in assay [1] (setting [7]), the IC90 was less than 0.075 µM. Also, the “Hap1 MTAP intact/deleted ratio” value in assay [1] (SDMA in-cell western) is “A (“A” indicates an IC50 ratio greater than or equal to 30 fold)”.

As for `C[C@H]1CC[C@H](c2ccc3cn([C@@H]4CCN(C)C[C@H]4C)nc3c2)N(C(=O)C(=O)Nc2cncc3cn[nH]c23)C1` (single isomer, unassigned) [Compound 159], the IC50 is less than 0.1 µM in the assay on MTAP-deleted cell line, less than 0.005 µM in assay [1] (setting [6]) and greater than 0.05 µM in assay [2] (setting [8]). The IC90 in assay [1] (setting [7]) is less than 0.075 µM. Further, the “Hap1 MTAP intact/deleted ratio” value in assay [1] (SDMA in-cell western) is “B (“B” indicates an IC50 ratio greater than or equal to 15 fold but lower than 30 fold)”.

With `C[C@H]1CC[C@H](c2cccc3c2OCC3)N(C(=O)C(=O)Nc2cnc(N)c3cn[nH]c23)C1` (racemic) [Compound 255, N-(4-Amino-1H-pyrazolo[4,3-c]pyridin-7-yl)-2-oxo-2-[rac-(2R,5S)-2-(2,3-dihydrobenzofuran-7-yl)-5-methyl-1-piperidyl]acetamide], the IC50 was less than 0.1 µM in the assay with MTAP-deleted cell line, less than 0.005 µM in assay [1] (setting [3]) and 0.005 to 0.05 µM in assay [2] (setting [5]). For the same molecule, in assay [1] (setting [4]), the IC90 is less than 0.075 µM. In addition, the “Hap1 MTAP intact/deleted ratio” value in assay [1] (SDMA in-cell western assay) is given as “B (“B” indicates an IC50 ratio greater than or equal to 15 fold but lower than 30 fold)”.

Consider `COc1cc([C@H]2CC[C@H](C)CN2C(=O)C(=O)Nc2cnc(N)c3cn[nH]c23)ccn1` [Compound 145, N-(4-amino-1H-pyrazolo[4,3-c]pyridin-7-yl)-2-oxo-2-[(2R,5S)-2-(2-methoxy-4-pyridyl)-5-methyl-1-piperidyl]acetamide], for which the figures for the IC50 (in the assay with MTAP-deleted cell line; in assay [1] (setting [6]); in assay [2] (setting [8])) were less than 0.1 µM, less than 0.005 µM and 0.005 to 0.05 µM, respectively. The concentration for an effect of 90% (IC90) in assay [1] (setting [7]) is less than 0.075 µM. In addition, the “Hap1 MTAP intact/deleted ratio” value in assay [1] (SDMA in-cell western) was “B (“B” indicates an IC50 ratio greater than or equal to 15 fold but lower than 30 fold)”.

For `C[C@H]1CC[C@H](c2ccc3cn(C4CC(C)(C)N(C)C(C)(C)C4)nc3c2)N(C(=O)C(=O)Nc2cncc3cn[nH]c23)C1` [Compound 45, 2-oxo-N-(1H-pyrazolo[4,3-c]pyridin-7-yl)-2-[(2R,5S)-5-methyl-2-[2-(1,2,2,6,6-pentamethyl-4-piperidyl)indazol-6-yl]-1-piperidyl]acetamide], the figures for the IC50 (with MTAP-deleted cell line; in assay [1] (setting [6]); in assay [2] (setting [8])) were less than 0.1 µM, less than 0.005 µM and 0.005 to 0.05 µM, respectively. Moreover, the IC90 in assay [1] (setting [7]) is less than 0.075 µM. Also, in assay [1] (SDMA in-cell western), the “Hap1 MTAP intact/deleted ratio” value was “B (“B” indicates an IC50 ratio greater than or equal to 15 fold but lower than 30 fold)”.

As for `[2H]c1c([2H])c([2H])c([C@H]2CC[C@H](C)CN2C(=O)C(=O)Nc2cnc(N)c3cn[nH]c23)c([2H])c1[2H]` (single isomer, unassigned) [Compound 268], the figures for the IC50 (with MTAP-deleted cell line; in assay [1] (setting [3]); in assay [2] (setting [9])) were less than 0.1 µM, less than 0.005 µM and 0.005 to 0.05 µM, respectively. Also, in assay [1] (setting [4]), the IC90 is less than 0.075 µM.

Regarding `C[C@H]1CC[C@H](c2ccc3scnc3c2)N(C(=O)C(=O)Nc2cnc(N)c3cn[nH]c23)C1` [Compound 17, N-(4-amino-1H-pyrazolo[4,3-c]pyridin-7-yl)-2-[(2R,5S)-2-(1,3-benzothiazol-5-yl)-5-methyl-1-piperidyl]-2-oxo-acetamide], the results for the IC50 (in the assay with MTAP-deleted cell line; in assay [1] (setting [6]); in assay [2] (setting [9])) were less than 0.1 µM, less than 0.005 µM and 0.005 to 0.05 µM, respectively. The IC90 in assay [1] (setting [7]) is less than 0.075 µM.

As for `Cc1cc([C@H]2CC[C@H](C)CN2C(=O)C(=O)Nc2cnc(N)c3cn[nH]c23)cnc1C` (racemic) [Compound 241, N-(4-Amino-1H-pyrazolo[4,3-c]pyridin-7-yl)-2-oxo-2-[rac-(2R,5S)-2-(5,6-dimethyl-3-pyridyl)-5-methyl-1-piperidyl]acetamide], the IC50 is less than 0.1 µM with MTAP-deleted cell line, less than 0.005 µM in assay [1] (setting [3]) and greater than 0.05 µM in assay [2] (setting [5]). Further, in assay [1] (setting [4]), the 90% effect concentration (IC90) is less than 0.075 µM. Besides, the “Hap1 MTAP intact/deleted ratio” value in assay [1] (SDMA in-cell western assay) is “A (“A” indicates an IC50 ratio greater than or equal to 30 fold)”.

Regarding `C[C@H]1CC[C@H](c2ccc3nn([C@H]4CCN(C)C4)cc3c2)N(C(=O)C(=O)Nc2cncc3cn[nH]c23)C1` [Compound 104, 2-oxo-N-(1H-pyrazolo[4,3-c]pyridin-7-yl)-2-[(2R,5S)-5-methyl-2-[2-[(3S)-1-methylpyrrolidin-3-yl]indazol-5-yl]-1-piperidyl]acetamide], the figures for the IC50 (in the assay with MTAP-deleted cell line; in assay [1] (setting [6]); in assay [2] (setting [8])) were 0.1 to 1 µM, 0.005 to 0.05 µM and greater than 0.05 µM, respectively. For the same molecule, in assay [1] (setting [7]), the IC90 is 0.075 to 0.125 µM. Also, the “Hap1 MTAP intact/deleted ratio” value in assay [1] (SDMA in-cell western) is given as “A (“A” indicates an IC50 ratio greater than or equal to 30 fold)”.

Take `CC(C)n1cc2cc([C@H]3CC[C@H](C)CN3C(=O)C(=O)Nc3cnc(N)c4cn[nH]c34)ccc2n1` (racemic) [Compound 231, N-(4-Amino-1H-pyrazolo[4,3-c]pyridin-7-yl)-2-oxo-2-[rac-(2R,5S)-2-(2-isopropylindazol-5-yl)-5-methyl-1-piperidyl]acetamide]: the IC50 in the assay with MTAP-deleted cell line was less than 0.1 µM; in assay [1] (setting [3]) it was less than 0.005 µM; in assay [2] (setting [5]), 0.005 to 0.05 µM. The IC90 in assay [1] (setting [4]) was less than 0.075 µM. In addition, the “Hap1 MTAP intact/deleted ratio” value in assay [1] (SDMA in-cell western assay) is recorded as “A (“A” indicates an IC50 ratio greater than or equal to 30 fold)”.

The values are drawn from patent US20250163048A1 (Tango Therapeutics, Inc., priority 2022, published 2025).
